Reference: the kinase profiling compilation of Christmann-Franck et al. (2016)

Columns and labels:
Test in all cases: radiometric filter-binding kinase assay, Kinase HotSpot
Settings in all cases: compound 0.5 µM; ATP 10 µM
ERBB2 (human) = ERBB2 (human) (UniProt P04626)
MAPK10 (human) = MAPK10 (human) (UniProt P53779)
NEK6 (human) = NEK6 (human) (UniProt Q9HC98)
LCK (human) = LCK (human) (UniProt P06239)
CSNK1E (human) = CSNK1E (human) (UniProt P49674)
ERBB4 (human) = ERBB4 (human) (UniProt Q15303)
MAP3K11 (human) = MAP3K11 (human) (UniProt Q16584)
Chain of MAP3K11 (human) (Q16584 whole entry, looked up): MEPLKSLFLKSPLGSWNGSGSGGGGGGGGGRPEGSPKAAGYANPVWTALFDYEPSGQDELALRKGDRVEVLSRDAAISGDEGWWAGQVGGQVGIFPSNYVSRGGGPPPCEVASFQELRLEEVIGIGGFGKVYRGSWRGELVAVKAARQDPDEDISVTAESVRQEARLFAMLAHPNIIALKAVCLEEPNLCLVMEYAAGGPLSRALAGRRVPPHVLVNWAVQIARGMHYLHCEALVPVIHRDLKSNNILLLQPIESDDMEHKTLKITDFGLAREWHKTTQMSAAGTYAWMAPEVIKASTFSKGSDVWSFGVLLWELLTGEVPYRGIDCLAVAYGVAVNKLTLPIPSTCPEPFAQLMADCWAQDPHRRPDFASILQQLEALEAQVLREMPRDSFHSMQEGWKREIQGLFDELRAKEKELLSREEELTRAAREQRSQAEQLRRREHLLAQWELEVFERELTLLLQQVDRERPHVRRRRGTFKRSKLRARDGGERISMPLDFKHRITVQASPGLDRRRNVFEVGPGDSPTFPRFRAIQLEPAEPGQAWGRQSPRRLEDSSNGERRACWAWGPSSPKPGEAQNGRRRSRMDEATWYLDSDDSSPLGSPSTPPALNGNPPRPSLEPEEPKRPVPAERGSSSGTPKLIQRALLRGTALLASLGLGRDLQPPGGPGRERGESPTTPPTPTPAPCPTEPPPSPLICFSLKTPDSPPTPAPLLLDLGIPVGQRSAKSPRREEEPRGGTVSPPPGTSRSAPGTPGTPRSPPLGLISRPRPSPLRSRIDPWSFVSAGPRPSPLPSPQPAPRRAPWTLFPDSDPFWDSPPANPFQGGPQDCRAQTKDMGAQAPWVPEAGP

OXSR1 (human) = OXSR1 (human) (UniProt O95747)
CAMK1D (human) = CAMK1D (human) (UniProt Q8IU85)
PASK (human) = PASK (human) (UniProt Q96RG2)
GRK7 (human) = GRK7 (human) (UniProt Q8WTQ7)
PRKCZ (human) = PRKCZ (human) (UniProt Q05513)
NUAK1 (human) = NUAK1 (human) (UniProt O60285)
CDK6 CCND1 (human) = CDK6 CCND1 (human) (UniProt Q00534+P24385)
Chain of CDK6 CCND1 (human) (P24385 whole entry, looked up): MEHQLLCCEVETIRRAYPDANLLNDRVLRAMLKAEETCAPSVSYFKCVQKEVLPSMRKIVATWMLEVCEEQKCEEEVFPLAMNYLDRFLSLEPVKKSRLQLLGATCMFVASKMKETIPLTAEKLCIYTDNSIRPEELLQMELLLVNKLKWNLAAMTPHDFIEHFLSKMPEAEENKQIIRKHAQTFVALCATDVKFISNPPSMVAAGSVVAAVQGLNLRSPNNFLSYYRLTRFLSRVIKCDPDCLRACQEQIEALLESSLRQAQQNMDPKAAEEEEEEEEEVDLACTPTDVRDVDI
Chain of CDK6 CCND1 (human) (Q00534 whole entry, looked up): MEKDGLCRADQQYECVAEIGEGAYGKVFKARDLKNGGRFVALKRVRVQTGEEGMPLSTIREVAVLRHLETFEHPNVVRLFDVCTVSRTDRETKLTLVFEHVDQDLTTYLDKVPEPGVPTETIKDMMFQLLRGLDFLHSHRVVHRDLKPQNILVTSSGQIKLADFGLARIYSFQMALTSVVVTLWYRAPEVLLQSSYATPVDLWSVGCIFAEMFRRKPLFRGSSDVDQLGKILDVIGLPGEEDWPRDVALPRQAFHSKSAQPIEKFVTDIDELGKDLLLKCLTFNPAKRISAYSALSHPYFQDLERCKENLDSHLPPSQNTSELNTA

RPS6KA3 KD1 KD2 (human) = RPS6KA3 KD1 KD2 (human) (UniProt P51812)
DDR2 (human) = DDR2 (human) (UniProt Q16832)
PLK1 (human) = PLK1 (human) (UniProt P53350)
AURKB (human) = AURKB (human) (UniProt Q96GD4)
CHUK (human) = CHUK (human) (UniProt O15111)
[1] = molecular target: TYK2 JH1 catalytic (human) (UniProt P29597)
CDK1 CCNA2 (human) = CDK1 CCNA2 (human) (UniProt P06493+P20248)
MAP2K1 (human) = MAP2K1 (human) (UniProt Q02750)
PKN2 (human) = PKN2 (human) (UniProt Q16513)
MAP3K14 (human) = MAP3K14 (human) (UniProt Q99558)
Chain of MAP3K14 (human) (Q99558 whole entry, looked up): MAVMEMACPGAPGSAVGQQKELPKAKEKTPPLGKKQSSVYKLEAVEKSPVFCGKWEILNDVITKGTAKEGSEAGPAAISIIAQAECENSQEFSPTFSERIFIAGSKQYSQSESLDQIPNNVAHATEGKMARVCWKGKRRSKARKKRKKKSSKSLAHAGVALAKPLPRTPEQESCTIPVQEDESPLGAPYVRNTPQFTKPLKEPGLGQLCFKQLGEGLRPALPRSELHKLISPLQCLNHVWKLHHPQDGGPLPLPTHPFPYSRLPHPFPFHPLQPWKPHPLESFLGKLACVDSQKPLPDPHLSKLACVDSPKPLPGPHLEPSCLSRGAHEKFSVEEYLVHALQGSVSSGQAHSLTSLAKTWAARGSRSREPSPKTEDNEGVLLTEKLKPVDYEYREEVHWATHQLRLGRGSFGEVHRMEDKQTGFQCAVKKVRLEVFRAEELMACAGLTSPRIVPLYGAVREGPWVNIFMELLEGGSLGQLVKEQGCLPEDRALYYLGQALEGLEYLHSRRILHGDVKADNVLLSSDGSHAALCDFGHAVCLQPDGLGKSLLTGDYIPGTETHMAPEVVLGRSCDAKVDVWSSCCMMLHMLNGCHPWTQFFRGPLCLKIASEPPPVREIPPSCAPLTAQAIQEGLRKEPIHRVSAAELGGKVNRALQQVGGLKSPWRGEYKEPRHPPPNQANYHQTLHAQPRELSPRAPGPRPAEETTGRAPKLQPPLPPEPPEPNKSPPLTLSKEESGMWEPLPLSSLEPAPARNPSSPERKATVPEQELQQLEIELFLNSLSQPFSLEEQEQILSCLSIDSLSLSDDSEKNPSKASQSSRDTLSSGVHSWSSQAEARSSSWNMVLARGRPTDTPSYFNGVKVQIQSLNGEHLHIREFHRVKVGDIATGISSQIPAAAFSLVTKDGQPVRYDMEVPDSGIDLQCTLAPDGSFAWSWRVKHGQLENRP

PRKCB2 (human) = PRKCB2 (human) (UniProt P05771)
Chain of PRKCB2 (human) (P05771 whole entry, looked up): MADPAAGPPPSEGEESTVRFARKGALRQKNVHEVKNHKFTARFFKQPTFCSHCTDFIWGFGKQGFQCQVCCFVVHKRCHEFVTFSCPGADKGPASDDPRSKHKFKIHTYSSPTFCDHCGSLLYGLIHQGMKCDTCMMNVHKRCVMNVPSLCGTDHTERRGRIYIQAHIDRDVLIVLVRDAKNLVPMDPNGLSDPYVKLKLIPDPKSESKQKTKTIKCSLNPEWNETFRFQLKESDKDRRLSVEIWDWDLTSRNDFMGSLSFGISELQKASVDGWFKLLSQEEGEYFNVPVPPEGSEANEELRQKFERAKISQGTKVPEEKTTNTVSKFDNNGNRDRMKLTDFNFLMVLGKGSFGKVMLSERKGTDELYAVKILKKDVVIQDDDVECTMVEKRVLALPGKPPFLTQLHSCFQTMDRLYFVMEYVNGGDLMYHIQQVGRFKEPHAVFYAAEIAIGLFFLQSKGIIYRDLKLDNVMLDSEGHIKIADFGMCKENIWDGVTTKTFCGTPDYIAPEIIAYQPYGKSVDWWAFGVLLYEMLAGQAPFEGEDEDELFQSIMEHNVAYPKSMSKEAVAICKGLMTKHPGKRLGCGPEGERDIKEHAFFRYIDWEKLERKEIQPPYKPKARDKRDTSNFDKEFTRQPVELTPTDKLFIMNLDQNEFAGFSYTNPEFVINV

FGFR1 (human) = FGFR1 (human) (UniProt P11362)
FGFR2 (human) = FGFR2 (human) (UniProt P21802)
PTK2B (human) = PTK2B (human) (UniProt Q14289)
MARK2 (human) = MARK2 (human) (UniProt Q7KZI7)
ROCK2 (human) = ROCK2 (human) (UniProt O75116)
DAPK1 (human) = DAPK1 (human) (UniProt P53355)
WNK2 (human) = WNK2 (human) (UniProt Q9Y3S1)
CLK2 (human) = CLK2 (human) (UniProt P49760)
STK33 (human) = STK33 (human) (UniProt Q9BYT3)
Chain of STK33 (human) (Q9BYT3 whole entry, looked up): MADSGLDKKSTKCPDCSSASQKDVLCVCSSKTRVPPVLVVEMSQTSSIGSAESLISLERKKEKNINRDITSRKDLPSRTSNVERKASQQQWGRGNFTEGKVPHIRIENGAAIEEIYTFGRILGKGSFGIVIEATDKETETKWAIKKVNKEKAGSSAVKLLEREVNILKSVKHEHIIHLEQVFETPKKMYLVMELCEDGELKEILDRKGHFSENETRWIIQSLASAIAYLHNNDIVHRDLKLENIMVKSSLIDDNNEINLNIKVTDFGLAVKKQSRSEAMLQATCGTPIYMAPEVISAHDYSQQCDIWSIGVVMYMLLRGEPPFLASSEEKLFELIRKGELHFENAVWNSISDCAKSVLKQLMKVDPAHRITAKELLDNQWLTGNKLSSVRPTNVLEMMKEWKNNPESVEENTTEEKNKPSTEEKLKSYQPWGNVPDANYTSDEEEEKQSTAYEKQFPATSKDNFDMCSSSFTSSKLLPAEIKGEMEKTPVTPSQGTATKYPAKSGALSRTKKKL

ZAP70 (human) = ZAP70 (human) (UniProt P43403)
JAK2 JH1 JH2 (human) = JAK2 JH1 JH2 (human) (UniProt O60674)
Chain of JAK2 JH1 JH2 (human) (O60674 whole entry, looked up): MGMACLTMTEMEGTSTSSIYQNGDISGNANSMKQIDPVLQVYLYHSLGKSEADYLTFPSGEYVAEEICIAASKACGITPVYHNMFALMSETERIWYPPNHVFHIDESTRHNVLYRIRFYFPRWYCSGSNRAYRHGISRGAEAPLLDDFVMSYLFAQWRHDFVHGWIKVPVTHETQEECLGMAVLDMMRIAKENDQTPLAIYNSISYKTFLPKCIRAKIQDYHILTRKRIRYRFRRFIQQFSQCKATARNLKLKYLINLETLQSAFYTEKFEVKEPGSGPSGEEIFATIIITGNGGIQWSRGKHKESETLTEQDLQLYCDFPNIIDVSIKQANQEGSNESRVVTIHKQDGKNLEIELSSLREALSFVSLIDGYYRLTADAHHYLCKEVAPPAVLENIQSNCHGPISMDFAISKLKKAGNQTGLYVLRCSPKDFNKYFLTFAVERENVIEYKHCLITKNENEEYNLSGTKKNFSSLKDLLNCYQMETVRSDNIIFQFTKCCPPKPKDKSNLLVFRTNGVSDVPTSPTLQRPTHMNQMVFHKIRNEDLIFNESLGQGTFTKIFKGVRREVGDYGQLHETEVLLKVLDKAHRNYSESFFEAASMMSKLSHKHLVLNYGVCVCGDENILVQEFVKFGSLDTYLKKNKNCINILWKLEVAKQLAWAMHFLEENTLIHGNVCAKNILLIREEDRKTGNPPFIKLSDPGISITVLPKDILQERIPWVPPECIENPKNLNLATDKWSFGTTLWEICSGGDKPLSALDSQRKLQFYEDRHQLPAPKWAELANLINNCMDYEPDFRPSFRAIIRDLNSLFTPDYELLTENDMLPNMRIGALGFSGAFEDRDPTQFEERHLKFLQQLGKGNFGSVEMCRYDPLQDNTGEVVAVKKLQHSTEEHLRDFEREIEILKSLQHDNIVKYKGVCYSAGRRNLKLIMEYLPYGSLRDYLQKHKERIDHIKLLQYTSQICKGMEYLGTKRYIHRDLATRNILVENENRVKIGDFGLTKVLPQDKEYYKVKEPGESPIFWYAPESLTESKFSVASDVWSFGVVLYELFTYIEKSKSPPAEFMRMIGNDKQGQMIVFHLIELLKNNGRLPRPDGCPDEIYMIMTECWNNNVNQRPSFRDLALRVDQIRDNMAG

MYLK (human) = MYLK (human) (UniProt Q15746)
ACVR1B (human) = ACVR1B (human) (UniProt P36896)
CSNK2A2 (human) = CSNK2A2 (human) (UniProt P19784)

Chain of NEK6 (human) (Q9HC98 whole entry, looked up): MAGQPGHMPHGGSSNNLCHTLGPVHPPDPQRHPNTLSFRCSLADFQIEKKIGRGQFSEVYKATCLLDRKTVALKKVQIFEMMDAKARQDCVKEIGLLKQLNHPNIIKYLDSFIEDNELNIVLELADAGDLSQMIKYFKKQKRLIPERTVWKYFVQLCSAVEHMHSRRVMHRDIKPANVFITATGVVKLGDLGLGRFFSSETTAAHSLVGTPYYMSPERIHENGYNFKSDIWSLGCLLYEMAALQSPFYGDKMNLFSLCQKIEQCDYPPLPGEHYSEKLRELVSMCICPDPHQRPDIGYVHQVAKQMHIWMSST

| SMILES | residual activity (ERBB2 (human)) | residual activity (MAPK10 (human)) | residual activity (NEK6 (human)) | residual activity (CSNK1E (human)) | residual activity (ERBB4 (human)) | residual activity (MAP3K11 (human)) | residual activity (OXSR1 (human)) | residual activity (CAMK1D (human)) | residual activity (PASK (human)) | residual activity (GRK7 (human)) | residual activity (PRKCZ (human)) | residual activity (NUAK1 (human)) | residual activity (CDK6 CCND1 (human)) | residual activity (RPS6KA3 KD1 KD2 (human)) | residual activity (DDR2 (human)) | residual activity (PLK1 (human)) | residual activity (CHUK (human)) | residual activity [1] | residual activity (CDK1 CCNA2 (human)) | residual activity (MAP2K1 (human)) | further results |
| --- | --- | --- | --- | --- | --- | --- | --- | --- | --- | --- | --- | --- | --- | --- | --- | --- | --- | --- | --- | --- | --- |
| CCCC(=O)Oc1ccc2[nH]c(C(=O)c3cc4ccccc4[nH]3)cc2c1 | 85.9% | 100% | 101% | 97.4% | 99.8% | 98.7% | 92.4% | 103% | 88.7% | 105% | 98.3% | 94% | 92.7% | 97.5% | 89.9% | 101% | 94.5% | 90.7% | 87.3% | 99.9% | residual activity (LCK (human)): 94%; residual activity (AURKB (human)): 97.1%; residual activity (PKN2 (human)): 100%; residual activity (MAP3K14 (human)): 109%; residual activity (PRKCB2 (human)): 102%; residual activity (FGFR1 (human)): 96%; residual activity (FGFR2 (human)): 100%; residual activity (PTK2B (human)): 87.6%; residual activity (MARK2 (human)): 83.1%; residual activity (ROCK2 (human)): 103%; residual activity (DAPK1 (human)): 85.8%; residual activity (WNK2 (human)): 113%; residual activity (CLK2 (human)): 94.3%; residual activity (STK33 (human)): 92.9%; residual activity (ZAP70 (human)): 100%; residual activity (JAK2 JH1 JH2 (human)): 106%; residual activity (MYLK (human)): 102%; residual activity (ACVR1B (human)): 98.9% |
| CNC(=O)c1cc(Oc2ccc(NC(=O)Nc3ccc(Cl)c(C(F)(F)F)c3)cc2)ccn1 | 103% | 94.2% | 105% | 95.9% | 94.8% | 98.3% | 103% | 103% | 99.5% | 97.3% | 94.5% | 103% | 91.8% | 100% | 3.41% | 98.1% | 99.8% | 98.9% | 100% | 102% | residual activity (CSNK2A2 (human)): 94.4%; residual activity (PKN2 (human)): 94.2%; residual activity (MAP3K14 (human)): 96.4%; residual activity (PRKCB2 (human)): 97.5%; residual activity (FGFR1 (human)): 90.9%; residual activity (FGFR2 (human)): 72.7%; residual activity (PTK2B (human)): 101%; residual activity (MARK2 (human)): 94.9%; residual activity (ROCK2 (human)): 101%; residual activity (DAPK1 (human)): 101%; residual activity (WNK2 (human)): 101%; residual activity (CLK2 (human)): 92.8%; residual activity (STK33 (human)): 83.9%; residual activity (ZAP70 (human)): 97.8%; residual activity (JAK2 JH1 JH2 (human)): 98.2%; residual activity (MYLK (human)): 93.7%; residual activity (ACVR1B (human)): 102% |
